Results from a compilation of properties of binary mixtures (doi:10.1021/je060123k).

Test: xn = mol fraction of the nth substance listed
Settings: 101 kPa

CCCCCCCCn1cc[n+](C)c1.[Cl-] + CCCO
Settings	speed of sound, 298.15 K [m/s]	speed of sound, 313.15 K [m/s]	speed of sound, 328.15 K [m/s]	viscosity, 298.15 K [mPa·s]	viscosity, 313.15 K [mPa·s]	viscosity, 328.15 K [mPa·s]
x2 = 0	–	1624	–	–	4100	–
x2 = 0.1071	1659	1584	–	7200	1720	–
x2 = 0.2407	1593	1539	–	2056	650	–
x2 = 0.3036	1566	1517	–	910	334	–
x2 = 0.407	1531	–	1445	386	–	77.4
x2 = 0.4887	1504	1461	1421	179	84.1	42.7
x2 = 0.6209	1456	1414	–	50.81	28.81	–
x2 = 0.7248	–	1369	–	–	12.22	–
x2 = 0.8516	1342	1296	1250	6.34	4.4	3.189
x2 = 0.9024	–	1257	1211	–	3.23	2.352
x2 = 0.94	1271	1223	–	3.238	2.293	–
x2 = 0.9729	1238	1188	–	2.648	1.878	–

CCCO + CCCCCCCCn1cc[n+](C)c1.[Cl-]
x1 = 1
Settings	speed of sound [m/s]	viscosity [mPa·s]
298.15 K	1205	1.951
313.15 K	1155	1.383
328.15 K	1105	1.007

CCCCCCCCn1cc[n+](C)c1.[Cl-] + CO
Settings	speed of sound, 298.15 K [m/s]	speed of sound, 313.15 K [m/s]	speed of sound, 328.15 K [m/s]	viscosity, 298.15 K [mPa·s]	viscosity, 313.15 K [mPa·s]	viscosity, 328.15 K [mPa·s]
x1 = 0.0197	–	1110	1070	–	0.594	0.497
x2 = 0	1721	1624	1560	21000	4100	1091
x2 = 0.0565	1683	1602	1548	10400	2450	760
x2 = 0.1686	1638	1578	1531	3500	1002	365
x2 = 0.2638	1608	1558	1514	1489	500	205
x2 = 0.3525	–	1536	1496	–	212	99
x2 = 0.4395	–	1518	–	–	106.7	–
x2 = 0.5589	–	–	1447	–	–	21.44
x2 = 0.7536	1447	1406	1365	8.43	5.82	4.39
x2 = 0.8231	1397	–	–	4.19	–	–
x2 = 0.8713	–	1304	1263	–	1.854	1.491
x2 = 0.8813	–	1292	1250	–	1.722	1.388
x2 = 0.9236	1274	1229	1186	1.416	1.133	0.93
x2 = 0.9436	1237	1192	1147	1.135	0.914	0.754

CCO + CCCCCCCCn1cc[n+](C)c1.[Cl-]
x1 = 1
Settings	speed of sound [m/s]	viscosity [mPa·s]
298.15 K	1143	1.085
313.15 K	1093	0.826
328.15 K	1043	0.641

CO + CCCCCCCCn1cc[n+](C)c1.[Cl-]
x1 = 1
Settings	speed of sound [m/s]	viscosity [mPa·s]
298.15 K	1103	0.543
328.15 K	1008	0.369

CCCCCCCCn1cc[n+](C)c1.[Cl-] + CCO
Settings	speed of sound, 298.15 K [m/s]	speed of sound, 313.15 K [m/s]	speed of sound, 328.15 K [m/s]	viscosity, 298.15 K [mPa·s]	viscosity, 313.15 K [mPa·s]	viscosity, 328.15 K [mPa·s]
x2 = 0	1721	1624	1560	21000	4100	1091
x2 = 0.0449	–	1606	–	–	2717	–
x2 = 0.1305	–	1578	1527	–	1411	481
x2 = 0.2969	1579	1530	1487	1127	394	165
x2 = 0.4753	1518	1477	1438	186	88	45.2
x2 = 0.6858	1437	–	–	21.26	–	–
x2 = 0.8809	1304	1258	–	3.5	2.601	–
x2 = 0.917	1264	1218	1175	2.551	1.919	1.488
x2 = 0.955	1215	1169	1122	1.754	1.341	1.038
x2 = 0.9794	1179	–	–	1.396	–	–
